Source: US8173771B2, “Humanin receptor or humanin-like polypeptide receptor” (Keio Univeristy, priority 2005, dated 2012)

Target: T1, HN receptor (HNR; CNTF-R/WSX-1/gp130) on F11 cells (Mus musculus, UniProt O70394+O88507)
T1 construct: endogenous in cells; host or cells: F11 neurohybrid cells
T1 sequence (O70394 25-623): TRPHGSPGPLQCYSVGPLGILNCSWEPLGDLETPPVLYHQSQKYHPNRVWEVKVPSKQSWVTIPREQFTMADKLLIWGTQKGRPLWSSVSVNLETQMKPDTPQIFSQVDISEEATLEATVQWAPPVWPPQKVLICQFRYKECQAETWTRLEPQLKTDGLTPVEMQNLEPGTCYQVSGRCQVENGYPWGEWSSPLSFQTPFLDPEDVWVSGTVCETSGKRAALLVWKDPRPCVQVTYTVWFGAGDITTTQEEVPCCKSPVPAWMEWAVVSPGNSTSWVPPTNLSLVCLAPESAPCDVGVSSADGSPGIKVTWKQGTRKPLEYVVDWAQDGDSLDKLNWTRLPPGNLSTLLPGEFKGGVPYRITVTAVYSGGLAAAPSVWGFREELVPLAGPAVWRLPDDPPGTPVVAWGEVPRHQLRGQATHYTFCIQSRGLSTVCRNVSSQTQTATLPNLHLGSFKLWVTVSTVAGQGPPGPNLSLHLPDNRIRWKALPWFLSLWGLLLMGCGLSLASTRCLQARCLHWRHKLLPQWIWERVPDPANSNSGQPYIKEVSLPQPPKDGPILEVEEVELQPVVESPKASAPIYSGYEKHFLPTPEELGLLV
T1 sequence (O88507 23-342): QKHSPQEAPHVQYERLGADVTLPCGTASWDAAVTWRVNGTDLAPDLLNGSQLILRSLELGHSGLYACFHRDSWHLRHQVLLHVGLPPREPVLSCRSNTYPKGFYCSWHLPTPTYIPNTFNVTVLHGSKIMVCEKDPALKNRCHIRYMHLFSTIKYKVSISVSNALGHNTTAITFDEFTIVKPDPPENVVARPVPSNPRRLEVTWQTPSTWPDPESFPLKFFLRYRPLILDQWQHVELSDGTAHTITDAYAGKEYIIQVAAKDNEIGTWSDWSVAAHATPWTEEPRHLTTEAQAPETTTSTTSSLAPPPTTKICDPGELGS
T1 sequence (Q00560 23-917 partner): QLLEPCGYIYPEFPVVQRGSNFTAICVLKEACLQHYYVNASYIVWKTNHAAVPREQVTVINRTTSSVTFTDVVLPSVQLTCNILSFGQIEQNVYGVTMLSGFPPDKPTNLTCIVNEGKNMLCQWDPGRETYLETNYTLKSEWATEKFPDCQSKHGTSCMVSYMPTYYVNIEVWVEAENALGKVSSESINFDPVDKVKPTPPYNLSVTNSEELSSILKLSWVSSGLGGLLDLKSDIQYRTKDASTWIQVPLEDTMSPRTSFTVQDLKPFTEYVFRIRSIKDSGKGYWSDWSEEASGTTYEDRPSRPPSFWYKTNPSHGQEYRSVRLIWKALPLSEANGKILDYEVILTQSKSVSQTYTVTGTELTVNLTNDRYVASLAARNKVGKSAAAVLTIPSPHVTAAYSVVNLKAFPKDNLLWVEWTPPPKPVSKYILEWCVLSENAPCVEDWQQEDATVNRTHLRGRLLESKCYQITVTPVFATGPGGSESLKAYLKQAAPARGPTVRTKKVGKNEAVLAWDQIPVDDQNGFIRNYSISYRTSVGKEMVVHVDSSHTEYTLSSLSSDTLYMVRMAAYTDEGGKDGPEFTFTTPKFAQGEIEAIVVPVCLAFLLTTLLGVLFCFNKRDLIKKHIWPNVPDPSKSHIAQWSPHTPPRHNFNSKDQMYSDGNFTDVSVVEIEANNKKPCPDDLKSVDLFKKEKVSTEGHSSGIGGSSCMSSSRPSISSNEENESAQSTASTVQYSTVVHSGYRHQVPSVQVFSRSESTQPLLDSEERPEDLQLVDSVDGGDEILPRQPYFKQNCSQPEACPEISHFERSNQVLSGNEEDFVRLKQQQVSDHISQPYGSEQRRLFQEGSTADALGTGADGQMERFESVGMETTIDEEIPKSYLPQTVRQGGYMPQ
Test: Immunofluorescence-based binding assay (2): biotin-HN / biotin-HNG binding to F11 cells
Conditions: biotin-HN; F11 cells with endogenous HNR or transfected with CNTF-R/WSX-1/gp130
Protocol: A) F11 cells were seeded on 96-well plates coated with poly-L-lysine (7×10^3 cells/well). An indicated amount of biotin-HN or biotin-HNG was added to the cells with or without 10 μM of unlabelled HNG or HNA, followed by a binding assay based on immunofluorescence reaction (2) (left panels). On the other hand, F11 cells were transfected with 0.5 μg of pcDNA3.1/GS-human CNTF-R, pEF1/MycHis-human WSX-1, and 1.0 μg of pCAG-human gp130. At 24 hrs after the transfection, the cells were re-seeded on 96-well plates coated with poly-L-lysine (7×10^3 cells/well). After 36 hrs the re-seeding, an indicated amount of biotin-HN or biotin-HNG was added to the cells with or without 10 μM of unlabeled HNG or HNA, followed by a binding assay based on immunofluorescence reaction (2) (right panels).
B) F11 cells were transfected with 0.5 μg of pRNA-U1.6/Shuttle vector, pRNA-U6.1/Shuttle-WSX-1 siRNA, pRNA-U6.1/Shuttle-CNTF-R siRNA, both pRNA-U6.1/Shuttle-WSX-1 siRNA and pRNA-U6.1/Shuttle-CNTF-R siRNA (0.5 μg each), pRNA-U6.1/Shuttle-FPR2 siRNA or pRNA-U6.1/Shuttle-LIFR siRNA. The total amount of vectors was adjusted to be 1.0 μg by including a backbone vector. At 24 hrs after the transfection, an indicated amount of biotin-HNG was added with or without unlabeled HNG, followed by a binding assay based on immunofluorescence reaction (2) at 72 hrs after the transfection.
E) F11 cells on 6-well plate (7×10^4 cells/well) were transfected with 1.0 μg of pRNA-U6.1/Shuttle vector, pRNA-U6.1/Shuttle-Bax siRNA, or both pRNA-U6.1/Shuttle-WSX-1 siRNA and pRNA-U6.1/Shuttle-CNTF-R siRNA (0.5 μg each). At 72 hrs after the transfection, the cells were added with an indicated amount of biotin-HN with or without unlabeled HN or HNA (100 μM) and subjected to an HN-binding assay based on immunofluorescence.
F11 cells (7×10^4/well in 6-well plates) were replated into 96-well plates (7×10^3 cells/well) at 24 hrs after transfection with indicated amounts of the plasmids encoding mycHis-WSX or V5-CNTF-R, and with PCAG-human gp130 if required. At 36 hrs after transfection, the cells were added with biotin-labeled HN or HNG of indicated concentrations in the presence or the absence of HNG (S14G-HN) or HNA (C8A-HN) of indicated concentrations (Hashimoto et al., 2001 a). After 6 hrs incubation, they were fixed with 4% paraformaldehyde in PBS for 30 min. After washing with PBS, cells were stained with FITC-conjugated avidin (Molecularprobe, Eugene, Oreg., USA). Immunofluorescence intensity was measured (excitation=485 nm, emission=535 nm) with a spectrofluorometer (Wallac1420 ARVOsx Multi Label Counter). Immunohistochemical analysis was done with a laser-scanning, confocal microscope LSM (Carl Zeiss, Germany).

**Q.** CC[C@H](C)[C@H](NC(=O)[C@H](CCC(=O)O)NC(=O)[C@H](CO)NC(=O)[C@@H](NC(=O)[C@H](CC(C)C)NC(=O)[C@H](CC(C)C)NC(=O)[C@H](CC(C)C)NC(=O)[C@H](CC(C)C)NC(=O)[C@H](CS)NC(=O)[C@H](CO)NC(=O)[C@H](Cc1ccccc1)NC(=O)CNC(=O)[C@H](CCCNC(=N)N)NC(=O)[C@@H]1CCCN1C(=O)[C@H](C)NC(=O)[C@@H](N)CCSC)[C@@H](C)O)C(=O)N[C@@H](CC(=O)O)C(=O)N[C@@H](CC(C)C)C(=O)N1CCC[C@H]1C(=O)N[C@H](C(=O)N[C@@H](CCCCN)C(=O)N[C@@H](CCCNC(=N)N)C(=O)N[C@@H](CCCNC(=N)N)C(=O)N[C@@H](C)C(=O)O)C(C)C [HN, Humanin] was tested. Which Kd did it give?
**A.** 1 to 10 µM
